Reference: patent US11993599B2, “Therapeutic compounds” (Genentech, Inc., priority 2021, dated 2024)

Legend:
BRG1 = molecular target: T1, BRG1 (Homo sapiens, UniProt P51532); assay: Immunofluorescence assay for BRG1 degradation in SW1573 cells; format: cell-based; settings: 20 hours incubation; for DC50: immunofluorescence mean nuclear signal, read-out: BRG1 IF Degradation IC50; for Dmax: SW1573, 20 h, normalized to a known degrader control, read-out: BRG1 IF Degradation Sinf (%)
T1 construct: either BRM primary antibody (Cell signaling Cat #11966) or BRG primary antibody (Abcam, ab 110641); endogenous in cells; host or cells: SW1573
T1 sequence (P51532 whole entry): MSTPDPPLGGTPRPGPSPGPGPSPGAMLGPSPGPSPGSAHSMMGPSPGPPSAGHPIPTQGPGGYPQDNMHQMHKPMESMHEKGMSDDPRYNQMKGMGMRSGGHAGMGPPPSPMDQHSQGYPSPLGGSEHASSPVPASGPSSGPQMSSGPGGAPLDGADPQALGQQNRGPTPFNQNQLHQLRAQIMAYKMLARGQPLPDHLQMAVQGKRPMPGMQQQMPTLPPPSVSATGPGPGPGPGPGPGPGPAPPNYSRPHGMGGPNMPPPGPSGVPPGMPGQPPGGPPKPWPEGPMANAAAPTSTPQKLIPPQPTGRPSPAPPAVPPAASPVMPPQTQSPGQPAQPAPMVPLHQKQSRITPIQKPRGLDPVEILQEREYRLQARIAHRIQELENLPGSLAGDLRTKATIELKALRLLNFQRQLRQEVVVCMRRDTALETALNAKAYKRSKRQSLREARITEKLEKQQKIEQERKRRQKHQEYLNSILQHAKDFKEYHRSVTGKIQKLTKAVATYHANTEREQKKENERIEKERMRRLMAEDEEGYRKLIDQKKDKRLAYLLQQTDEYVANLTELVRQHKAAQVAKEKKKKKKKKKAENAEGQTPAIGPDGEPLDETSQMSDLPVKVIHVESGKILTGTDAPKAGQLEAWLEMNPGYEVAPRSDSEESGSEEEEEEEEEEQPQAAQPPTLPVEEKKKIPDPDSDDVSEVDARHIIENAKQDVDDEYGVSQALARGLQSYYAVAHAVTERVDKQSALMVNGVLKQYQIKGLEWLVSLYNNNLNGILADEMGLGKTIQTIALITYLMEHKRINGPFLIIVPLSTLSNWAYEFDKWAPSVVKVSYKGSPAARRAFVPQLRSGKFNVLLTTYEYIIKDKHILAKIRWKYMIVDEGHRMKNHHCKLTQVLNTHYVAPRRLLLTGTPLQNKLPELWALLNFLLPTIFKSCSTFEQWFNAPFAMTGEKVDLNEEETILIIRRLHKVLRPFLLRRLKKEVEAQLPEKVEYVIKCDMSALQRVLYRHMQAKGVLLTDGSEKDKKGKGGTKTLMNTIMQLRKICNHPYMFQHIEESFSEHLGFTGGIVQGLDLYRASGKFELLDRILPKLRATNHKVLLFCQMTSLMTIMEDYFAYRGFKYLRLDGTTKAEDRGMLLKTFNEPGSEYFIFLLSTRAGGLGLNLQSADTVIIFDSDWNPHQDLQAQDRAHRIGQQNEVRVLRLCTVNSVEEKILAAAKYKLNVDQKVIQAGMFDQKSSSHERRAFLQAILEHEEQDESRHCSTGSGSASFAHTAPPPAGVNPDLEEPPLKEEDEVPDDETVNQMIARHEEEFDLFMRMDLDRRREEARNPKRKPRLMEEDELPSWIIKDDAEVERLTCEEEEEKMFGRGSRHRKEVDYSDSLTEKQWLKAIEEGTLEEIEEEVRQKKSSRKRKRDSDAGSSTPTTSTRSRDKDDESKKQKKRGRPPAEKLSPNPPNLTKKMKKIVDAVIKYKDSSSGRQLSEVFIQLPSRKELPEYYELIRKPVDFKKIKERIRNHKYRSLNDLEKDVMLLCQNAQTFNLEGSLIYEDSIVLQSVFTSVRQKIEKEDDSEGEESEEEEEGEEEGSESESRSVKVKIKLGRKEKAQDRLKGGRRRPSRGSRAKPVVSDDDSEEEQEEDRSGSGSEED
Procedure: (§1) Example B-2: Immunofluorescence Assay for BRM and BRG1 Degraders
(§2) SW1573 cells were seeded at 3000 cells/well in 384 well plates. The next day, compounds were added using an Echo dispenser. After 20 hours of incubation with compound, cells were fixed with 4% formaldehyde then permeabilized with 0.2% Triton X-100 and blocked with 10% FCS. Fixed and permeabilized cells were treated overnight at 4° C. with either BRM primary antibody (Cell signaling Cat #11966) or BRG primary antibody (Abcam, ab 110641). Finally, cells were treated with fluorescently labeled secondary antibodies for 1 hr (Donkey anti-Rabbit IgG AF488, Life Technologies, A21206) and Hoechst nuclear stain (#H3569) was added for 30 minutes. Cells were washed with PBS in between each step and before imaging on an Opera Phenix microscope (Perkin Elmer). Harmony software (Perking Elmer) was used to quantify the mean nuclear signaling intensity of BRM or BRG signaling per cell in each well. Dose responses were determined from the concentration dependent response of mean nuclear signal intensity with data normalized to a known degrader control. Dose response curves were fit to a floating maximum to allow for calculation of the Dmax.
(§3) Note that, in Table 5, the “Compound Number” corresponds to that used in Table 1. In Table 5, for BRM and BRG1 IF degradation IC50 (μM): A indicates <0.010 μM, B indicates 0.010-0.10 μM, and C indicates >0.10 μM; and for BRM and BRG1 IF degradation Sinf % D indicates 0-−30%, E indicates −30%-−70%, F indicates −71%-−120% and ND indicates the value was not determined.

BRM = BRM (Homo sapiens, UniProt P51531); assay: Immunofluorescence assay for BRM degradation in SW1573 cells; format: cell-based; parameters: treated overnight at 4° C. with either BRM primary antibody (Cell signaling Cat #11966) or BRG primary antibody; endogenous in cells; host or cells: SW1573; settings: 20 hours incubation; for DC50: immunofluorescence mean nuclear signal, read-out: BRM IF Degradation IC50; for BRM IF Degradation Sinf (%): normalized to a known degrader control
BRM, sequence (P51531 whole entry): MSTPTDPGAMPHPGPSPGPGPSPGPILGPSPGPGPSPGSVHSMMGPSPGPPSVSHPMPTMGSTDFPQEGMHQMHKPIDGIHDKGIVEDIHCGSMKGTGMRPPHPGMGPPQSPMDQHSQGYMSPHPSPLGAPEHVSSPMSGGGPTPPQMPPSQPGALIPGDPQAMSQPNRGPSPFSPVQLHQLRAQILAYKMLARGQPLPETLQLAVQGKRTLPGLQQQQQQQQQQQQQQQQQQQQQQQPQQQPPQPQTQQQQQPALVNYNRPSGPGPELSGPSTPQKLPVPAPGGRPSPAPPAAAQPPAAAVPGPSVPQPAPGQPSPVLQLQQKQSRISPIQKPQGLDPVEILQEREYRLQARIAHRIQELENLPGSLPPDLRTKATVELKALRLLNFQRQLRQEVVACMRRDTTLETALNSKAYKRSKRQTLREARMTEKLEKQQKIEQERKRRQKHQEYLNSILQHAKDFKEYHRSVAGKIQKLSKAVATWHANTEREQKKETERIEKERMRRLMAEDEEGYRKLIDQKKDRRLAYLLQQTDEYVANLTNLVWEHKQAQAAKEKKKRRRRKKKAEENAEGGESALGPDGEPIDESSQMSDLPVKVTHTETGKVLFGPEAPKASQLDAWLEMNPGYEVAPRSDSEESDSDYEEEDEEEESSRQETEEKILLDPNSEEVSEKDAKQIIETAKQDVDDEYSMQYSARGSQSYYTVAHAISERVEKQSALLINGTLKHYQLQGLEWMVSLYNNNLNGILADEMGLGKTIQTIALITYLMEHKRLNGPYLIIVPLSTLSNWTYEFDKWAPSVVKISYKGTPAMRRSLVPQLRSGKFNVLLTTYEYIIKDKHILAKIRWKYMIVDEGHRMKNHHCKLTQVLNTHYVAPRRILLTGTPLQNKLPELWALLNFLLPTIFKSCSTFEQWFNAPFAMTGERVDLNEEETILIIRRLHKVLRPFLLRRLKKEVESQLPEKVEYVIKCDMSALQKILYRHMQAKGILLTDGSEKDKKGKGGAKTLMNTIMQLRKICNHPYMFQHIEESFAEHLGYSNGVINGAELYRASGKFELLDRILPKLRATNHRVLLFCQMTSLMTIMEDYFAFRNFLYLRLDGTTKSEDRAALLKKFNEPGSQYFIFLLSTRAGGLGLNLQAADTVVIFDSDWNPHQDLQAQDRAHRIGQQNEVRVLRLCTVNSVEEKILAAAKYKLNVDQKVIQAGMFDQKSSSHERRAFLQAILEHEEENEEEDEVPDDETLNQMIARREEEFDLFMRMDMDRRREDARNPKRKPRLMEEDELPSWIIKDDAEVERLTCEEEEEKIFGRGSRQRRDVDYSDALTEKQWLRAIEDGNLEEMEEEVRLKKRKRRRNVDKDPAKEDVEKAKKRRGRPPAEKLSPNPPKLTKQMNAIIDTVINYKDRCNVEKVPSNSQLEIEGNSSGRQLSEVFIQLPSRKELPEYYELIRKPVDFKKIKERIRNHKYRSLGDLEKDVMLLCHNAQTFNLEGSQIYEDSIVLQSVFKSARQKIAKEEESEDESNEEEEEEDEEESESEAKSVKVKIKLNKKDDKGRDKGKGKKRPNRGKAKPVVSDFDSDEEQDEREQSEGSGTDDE
Procedure: as §1, §2, §3

Compound	DC50 (BRG1) [nM]	Dmax (BRG1) [%]	DC50 (BRM) [nM]	BRM IF Degradation Sinf (%) (BRM)
Oc1ccccc1-c1cc2c(nn1)NC[C@H]1CN(c3ccnc(C#CCN4CCCCCC4)c3)CCN21 (single isomer, unassigned) [Compound 252]	< 10	71 to 120	< 10	F (F indicates −71%-−120%)
Oc1ccccc1-c1cc2c(nn1)NC[C@@H]1CN(c3ccnc(C#CCN4CCCCCC4)c3)CCN21 (single isomer, unassigned) [Compound 253]	< 10	71 to 120	< 10	F (F indicates −71%-−120%)
Nc1nnc(-c2ccccc2O)cc1N1CC2CCC(C1)N2c1ccnc(C#CCNC(=O)C2CCNCC2)c1 [Compound 35, N-[3-[4-[3-[3-amino-6-(2-hydroxyphenyl)pyridazin-4-yl]-3,8-diazabicyclo[3.2.1]octan-8-yl]-2-pyridyl]prop-2-ynyl]piperidine-4-carboxamide]	> 100		> 100	E (E indicates −30%-−70%)
CC(C)(N)C#Cc1cc(N2C3CCC2CN(c2cc(-c4ccccc4O)nnc2N)C3)ccn1 [Compound 36, 2-[6-amino-5-[8-[2-(3-amino-3-methyl-but-1-ynyl)-4-pyridyl]-3,8-diazabicyclo[3.2.1]octan-3-yl]pyridazin-3-yl]phenol]	10 to 100	30 to 70	10 to 100	E (E indicates −30%-−70%)
COC1CCCN(CC#Cc2cc(N3C4CCC3CN(c3cc(-c5ccccc5O)nnc3N)C4)ccn2)C1 (centres unmarked) [Compound 37, 2-[6-amino-5-[8-[2-[3-(3-methoxy-1-piperidyl)prop-1-ynyl]-4-pyridyl]-3,8-diazabicyclo[3.2.1]octan-3-yl]pyridazin-3-yl]phenol]	< 10	30 to 70	10 to 100	E (E indicates −30%-−70%)
Nc1nnc(-c2ccccc2O)cc1N1CC2CCC(C1)N2c1ccnc(C#CCN2CCN(C3CC3)CC2)c1 [Compound 38, 2-[6-amino-5-[8-[2-[3-(4-cyclopropylpiperazin-1-yl)prop-1-ynyl]-4-pyridyl]-3,8-diazabicyclo[3.2.1]octan-3-yl]pyridazin-3-yl]phenol]	> 100		10 to 100	E (E indicates −30%-−70%)
Nc1nnc(-c2ccccc2O)cc1N1CC2CCC(C1)N2c1ccnc(C#CCN2CC3CCCCC3C2)c1 (centres unmarked) [Compound 39, 2-[5-[8-[2-[3-(1,3,3a,4,5,6,7,7a-octahydroisoindol-2-yl)prop-1-ynyl]-4-pyridyl]-3,8-diazabicyclo[3.2.1]octan-3-yl]-6-amino-pyridazin-3-yl]phenol]	< 10	30 to 70	< 10	F (F indicates −71%-−120%)
CC1CN(CC#Cc2cc(N3C4CCC3CN(c3cc(-c5ccccc5O)nnc3N)C4)ccn2)CCN1 (centres unmarked) [Compound 40, 2-[6-amino-5-[8-[2-[3-(3-methylpiperazin-1-yl)prop-1-ynyl]-4-pyridyl]-3,8-diazabicyclo[3.2.1]octan-3-yl]pyridazin-3-yl]phenol]	> 100		> 100	E (E indicates −30%-−70%)
COCC1CCCCN1CC#Cc1cc(N2C3CCC2CN(c2cc(-c4ccccc4O)nnc2N)C3)ccn1 (centres unmarked) [Compound 41, 2-[6-amino-5-[8-[2-[3-[2-(methoxymethyl)-1-piperidyl]prop-1-ynyl]-4-pyridyl]-3,8-diazabicyclo[3.2.1]octan-3-yl]pyridazin-3-yl]phenol]	10 to 100	30 to 70	10 to 100	E (E indicates −30%-−70%)
CC1CN(CC#Cc2cc(N3C4CCC3CN(c3cc(-c5ccccc5O)nnc3N)C4)ccn2)CCCO1 (centres unmarked) [Compound 42, 2-[6-amino-5-[8-[2-[3-(2-methyl-1,4-oxazepan-4-yl)prop-1-ynyl]-4-pyridyl]-3,8-diazabicyclo[3.2.1]octan-3-yl]pyridazin-3-yl]phenol]	10 to 100	30 to 70	10 to 100	E (E indicates −30%-−70%)
Nc1nnc(-c2ccccc2O)cc1N1CC2CCC(C1)N2c1ccnc(C#CCN2CCC(F)(F)C2)c1 [Compound 43, 2-[6-amino-5-[8-[2-[3-(3,3-difluoropyrrolidin-1-yl)prop-1-ynyl]-4-pyridyl]-3,8-diazabicyclo[3.2.1]octan-3-yl]pyridazin-3-yl]phenol]	< 10	0 to 30	10 to 100	E (E indicates −30%-−70%)
Nc1nnc(-c2ccccc2O)cc1N1CC2CCC(C1)N2c1ccnc(C#CCN2CCC3(CCCO3)C2)c1 (centres unmarked) [Compound 44, 2-[6-amino-5-[8-[2-[3-(1-oxa-7-azaspiro[4.4]nonan-7-yl)prop-1-ynyl]-4-pyridyl]-3,8-diazabicyclo[3.2.1]octan-3-yl]pyridazin-3-yl]phenol]	10 to 100	30 to 70	< 10	E (E indicates −30%-−70%)
Nc1nnc(-c2ccccc2O)cc1N1CC2CCC(C1)N2c1ccnc(C#CCN2CCC(CO)CC2)c1 [Compound 45, 2-(6-amino-5-(8-(2-(3-(4-(hydroxymethyl)piperidin-1-yl)prop-1-yn-1-yl)pyridin-4-yl)-3,8-diazabicyclo[3.2.1]octan-3-yl)pyridazin-3-yl)phenol]	10 to 100	30 to 70	10 to 100	E (E indicates −30%-−70%)
Nc1nnc(-c2ccccc2O)cc1N1CC2CCC(C1)N2c1ccnc(C#CCN2CCC[C@H]2CO)c1 [Compound 46, 2-[6-amino-5-[8-[2-[3-[(2S)-2-(hydroxymethyl)pyrrolidin-1-yl]prop-1-ynyl]-4-pyridyl]-3,8-diazabicyclo[3.2.1]octan-3-yl]pyridazin-3-yl]phenol]	10 to 100	30 to 70	< 10	E (E indicates −30%-−70%)
Nc1nnc(-c2ccccc2O)cc1N1CC2CCC(C1)N2c1ccnc(C#CCCN2CCCCC2)c1 [Compound 182, 2-[6-amino-5-[8-[2-[4-(1-piperidyl)but-1-ynyl]-4-pyridyl]-3,8-diazabicyclo[3.2.1]octan-3-yl]pyridazin-3-yl]phenol]			> 100	F (F indicates −71%-−120%)
CC1CCN(CC#Cc2cc(N3C4CCC3CN(c3cc(-c5ccccc5O)nnc3N)C4)ccn2)CCC1=O (centres unmarked) [Compound 198, 1-[3-[4-[3-[3-amino-6-(2-hydroxyphenyl)pyridazin-4-yl]-3,8-diazabicyclo[3.2.1]octan-8-yl]-2-pyridyl]prop-2-ynyl]-5-methyl-azepan-4-one]			< 10	E (E indicates −30%-−70%)
Nc1nnc(-c2ccccc2O)cc1N1CC2CCC(C1)N2c1ccnc(C#CCN2CCCN(c3ccncc3)CC2)c1 [Compound 204, 2-[6-amino-5-[8-[2-[3-[4-(4-pyridyl)-1,4-diazepan-1-yl]prop-1-ynyl]-4-pyridyl]-3,8-diazabicyclo[3.2.1]octan-3-yl]pyridazin-3-yl]phenol]			10 to 100	E (E indicates −30%-−70%)
CC1(C)CC(O)CCN(CC#Cc2cc(N3C4CCC3CN(c3cc(-c5ccccc5O)nnc3N)C4)ccn2)C1 (centres unmarked) [Compound 213, 1-[3-[4-[3-[3-amino-6-(2-hydroxyphenyl)pyridazin-4-yl]-3,8-diazabicyclo[3.2.1]octan-8-yl]-dimethyl-azepan-4-ol 2-pyridyl]prop-2-ynyl]-6,6-]			10 to 100	E (E indicates −30%-−70%)
Nc1nnc(-c2ccccc2O)cc1N1CC2CCC(C1)N2c1ccnc(C#CCN2CC3C4CCC(C4)C32)c1 (centres unmarked) [Compound 220, 2-[6-amino-5-[8-[2-[3-(3-azatricyclo[4.2.1.02,5]nonan-3-yl)prop-1-ynyl]-4-pyridyl]-3,8-diazabicyclo[3.2.1]octan-3-yl]pyridazin-3-yl]phenol]			> 100	E (E indicates −30%-−70%)
Nc1nnc(-c2ccccc2O)cc1N1CC2CCC(C1)N2c1ccnc(/C=C/CN2CCCCCC2)c1 [Compound 248, (E)-2-(6-amino-5-(8-(2-(3-(azepan-1-yl)prop-1-en-1-yl)pyridin-4-yl)-3,8-diazabicyclo[3.2.1]octan-3-yl)pyridazin-3-yl)phenol]			< 10	E (E indicates −30%-−70%)
